The values below come from ChEMBL document CHEMBL3804811 (J Med Chem, 2016).

Usually IC50 stands for the point on the concentration scale where inhibition reaches its midpoint. Usually AUC(0-inf) stands for the area under the concentration-time curve extrapolated to infinity. A lower AUC(0-inf) goes with low exposure. As a reminder, the half-life is the time needed for the level to fall by half in the phase considered. Lower therefore signals fast loss. One may read the Cmax as the peak of the concentration-time curve. What is called Tmax is the time at which the peak concentration occurs. As usually defined, the Papp B→A is how fast a substance crosses the layer from the basolateral side.

The source made the active and inactive calls. Bounds are passed on as bounds.

The subject of one series is Mus musculus. Nature of the series: Toxicity in SCID mouse xenografted with human KARPAS299 cells assessed as body weight loss at 30 to 60 mg/kg, po bid administered for 10 days. Type of series: organism-based, KARPAS-299. The settings on record: in vivo, 240 h. For orientation: In xenograft studies the graft and the host belong to different species.
Series [1] can be described thus: Inhibition of SULU1 (unknown origin) in presence of gamma33-ATP. Further details: species or system Homo sapiens.
Series [2] is described as follows: AUC (infinity) in Sprague-Dawley rat at 10 mg/kg, iv administered as single dose by LC-MS/MS analysis. The format is ADME, organism-based. Further details: dose 10 mg/kg, time infinity, route intravenous. The settings on record: in vivo.
Series [3] addresses T1, 3-phosphoinositide-dependent protein kinase 1 (Homo sapiens, UniProt O15530).
T1 sequence (O15530 whole entry): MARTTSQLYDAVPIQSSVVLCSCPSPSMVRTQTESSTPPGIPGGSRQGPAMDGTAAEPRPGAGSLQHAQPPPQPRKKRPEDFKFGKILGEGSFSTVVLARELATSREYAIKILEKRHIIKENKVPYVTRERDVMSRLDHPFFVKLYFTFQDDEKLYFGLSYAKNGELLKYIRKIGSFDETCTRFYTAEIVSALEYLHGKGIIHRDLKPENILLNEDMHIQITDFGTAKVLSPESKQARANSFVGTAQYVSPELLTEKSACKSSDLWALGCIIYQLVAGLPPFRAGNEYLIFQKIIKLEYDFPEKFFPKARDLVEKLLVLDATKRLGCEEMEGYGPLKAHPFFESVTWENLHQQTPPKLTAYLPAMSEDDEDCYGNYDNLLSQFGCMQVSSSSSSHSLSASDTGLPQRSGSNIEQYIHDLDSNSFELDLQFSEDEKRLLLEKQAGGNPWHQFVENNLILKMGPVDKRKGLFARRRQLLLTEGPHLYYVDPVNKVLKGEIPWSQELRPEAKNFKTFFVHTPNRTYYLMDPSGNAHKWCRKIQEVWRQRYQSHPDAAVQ
Nature of the series: Inhibition of PDK1 (unknown origin) in presence of gamma33-ATP.

A short description of series [4]: Half life in Harlan nu/nu mouse at 10 mg/kg, iv administered as single dose by LC-MS/MS analysis. Type of series: ADME, organism-based. Particulars: in vivo.
Series [5] can be described thus: Cmax in Sprague-Dawley rat at 10 mg/kg, iv administered as single dose by LC-MS/MS analysis. Type of series: ADME, organism-based. More on the design: dose 10 mg/kg, route intravenous. Particulars: in vivo.
The nature of series [6]: Intrinsic clearance in rat hepatocytes at […] after 10 to 90 mins by LC-MS/MS analysis. Particulars: read-out: CLH. Type of series: ADME, cell-based, Hepatocyte.
A short description of series [7]: Cmax in Beagle dog at 10 mg/kg, iv administered as single dose by LC-MS/MS analysis. The format is ADME, organism-based, Canis lupus familiaris. More on the design: dose 10 mg/kg, route intravenous. The settings on record: in vivo.
Series [8] in a line: AUC (infinity) in Harlan nu/nu mouse at 10 mg/kg, po administered as single dose by LC-MS/MS analysis. Type of series: ADME, organism-based. Further details: dose 10 mg/kg, route oral, time infinity. Particulars: in vivo.
A short description of series [9]: Cmax in Beagle dog at 10 mg/kg, po administered as single dose by LC-MS/MS analysis. Particulars: in vivo. The format is ADME, organism-based, Canis lupus familiaris. Further details: dose 10 mg/kg, route oral.
The nature of series [10]: Half life in Beagle dog at 10 mg/kg, po administered as single dose by LC-MS/MS analysis. Type of series: ADME, organism-based, Canis lupus familiaris. The settings on record: in vivo.
Series [11] in a line: Tmax in Beagle dog at 10 mg/kg, po administered as single dose by LC-MS/MS analysis. The format is ADME, organism-based, Canis lupus familiaris. Particulars: in vivo.
Series [12] in a line: Apparent permeability from basolateral to apical side in human Caco2 cells at 2.5 mg/ml after 2 hrs by reversed-phase HPLC method. Particulars: Caco-2. Type of series: ADME, cell-based. For orientation: Caco-2 monolayers are a common model of the intestinal barrier.
A further series deals with KARPAS-299. Particulars: Homo sapiens.
In series [13] the target is T2, Eukaryotic translation initiation factor 2-alpha kinase 3 (Homo sapiens, UniProt Q9NZJ5).
T2 sequence (Q9NZJ5 whole entry): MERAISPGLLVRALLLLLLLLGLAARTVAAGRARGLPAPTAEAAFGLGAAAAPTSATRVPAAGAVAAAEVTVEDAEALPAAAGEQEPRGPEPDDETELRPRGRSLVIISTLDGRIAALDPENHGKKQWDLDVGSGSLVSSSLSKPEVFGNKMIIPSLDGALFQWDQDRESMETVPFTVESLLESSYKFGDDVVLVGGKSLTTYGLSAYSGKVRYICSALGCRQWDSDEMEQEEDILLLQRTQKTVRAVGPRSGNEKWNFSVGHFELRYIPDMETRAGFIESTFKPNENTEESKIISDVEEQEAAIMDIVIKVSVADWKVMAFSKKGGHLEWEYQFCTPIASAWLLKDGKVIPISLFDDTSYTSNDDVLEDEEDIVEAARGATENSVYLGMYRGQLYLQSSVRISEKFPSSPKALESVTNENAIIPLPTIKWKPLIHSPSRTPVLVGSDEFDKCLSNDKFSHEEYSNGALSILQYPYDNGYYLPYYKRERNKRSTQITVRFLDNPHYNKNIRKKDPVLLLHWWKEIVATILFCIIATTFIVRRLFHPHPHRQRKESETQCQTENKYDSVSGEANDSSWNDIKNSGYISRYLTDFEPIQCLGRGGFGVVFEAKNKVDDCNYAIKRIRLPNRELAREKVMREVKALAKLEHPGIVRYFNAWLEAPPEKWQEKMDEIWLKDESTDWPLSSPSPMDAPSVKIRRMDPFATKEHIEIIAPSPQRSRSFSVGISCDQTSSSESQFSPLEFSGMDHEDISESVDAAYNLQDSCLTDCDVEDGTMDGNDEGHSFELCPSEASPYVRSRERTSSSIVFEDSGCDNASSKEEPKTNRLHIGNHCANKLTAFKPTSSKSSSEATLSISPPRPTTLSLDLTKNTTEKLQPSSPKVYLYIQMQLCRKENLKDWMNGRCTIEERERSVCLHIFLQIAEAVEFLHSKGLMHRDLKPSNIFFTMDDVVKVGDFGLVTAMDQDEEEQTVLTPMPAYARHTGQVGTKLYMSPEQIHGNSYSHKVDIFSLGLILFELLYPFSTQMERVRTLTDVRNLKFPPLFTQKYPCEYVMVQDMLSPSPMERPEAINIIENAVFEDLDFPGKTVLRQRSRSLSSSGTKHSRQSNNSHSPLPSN
Nature of the series: Inhibition of PERK (unknown origin) in presence of gamma33-ATP.

Series [14] in a line: Antiproliferative activity against human SUP-M2 cells expressing ALK protein incubated for 72 hrs by cell titer-glo assay. Type of series: functional, cell-based. The settings on record: SUP-M2, 72 h.
A short description of series [15]: Cmax in Sprague-Dawley rat at 10 mg/kg, po administered as single dose by LC-MS/MS analysis. Particulars: in vivo. More on the design: dose 10 mg/kg, route oral. Type of series: ADME, organism-based.
Another series has as its system NCI-H2228. The settings on record: Homo sapiens.
Series [16] can be described thus: Half life in Harlan nu/nu mouse at 10 mg/kg, po administered as single dose by LC-MS/MS analysis. Type of series: ADME, organism-based. Particulars: in vivo.
Series [17] has as its target Serine/threonine-protein kinase NIM1 (Homo sapiens, UniProt Q8IY84). Nature of the series: Inhibition of NIM1 (unknown origin) in presence of gamma33-ATP.
A short description of series [18]: Drug uptake in Harlan nu/nu mouse brain at 240 mg/kg, po administered per day for 2 weeks measured 6 hrs post last dose by LC-MS/MS analysis. Type of series: ADME, organism-based. The settings on record: read-out: Drug uptake.
The target of series [19] is Vascular endothelial growth factor receptor 2 (Homo sapiens, UniProt P35968). Nature of the series: Inhibition of VEGFR2 (unknown origin) in presence of gamma33-ATP.
Series [20] in a line: AUC (infinity) in Harlan nu/nu mouse at 10 mg/kg, iv administered as single dose by LC-MS/MS analysis. The format is ADME, organism-based. Further details: dose 10 mg/kg, time infinity, route intravenous. Particulars: in vivo.

Chain of Serine/threonine-protein kinase NIM1 (Q8IY84 whole entry): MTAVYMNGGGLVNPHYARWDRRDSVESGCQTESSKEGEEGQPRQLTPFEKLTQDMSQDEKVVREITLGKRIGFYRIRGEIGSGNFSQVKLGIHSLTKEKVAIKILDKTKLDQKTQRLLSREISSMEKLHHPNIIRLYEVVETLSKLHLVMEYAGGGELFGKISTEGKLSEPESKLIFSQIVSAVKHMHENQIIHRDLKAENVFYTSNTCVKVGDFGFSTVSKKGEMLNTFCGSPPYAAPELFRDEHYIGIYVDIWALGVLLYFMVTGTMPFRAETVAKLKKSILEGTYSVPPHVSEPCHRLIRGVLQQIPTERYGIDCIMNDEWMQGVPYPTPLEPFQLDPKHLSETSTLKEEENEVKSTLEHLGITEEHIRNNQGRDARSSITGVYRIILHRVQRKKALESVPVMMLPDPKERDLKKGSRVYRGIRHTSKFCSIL
Chain of Vascular endothelial growth factor receptor 2 (P35968 whole entry): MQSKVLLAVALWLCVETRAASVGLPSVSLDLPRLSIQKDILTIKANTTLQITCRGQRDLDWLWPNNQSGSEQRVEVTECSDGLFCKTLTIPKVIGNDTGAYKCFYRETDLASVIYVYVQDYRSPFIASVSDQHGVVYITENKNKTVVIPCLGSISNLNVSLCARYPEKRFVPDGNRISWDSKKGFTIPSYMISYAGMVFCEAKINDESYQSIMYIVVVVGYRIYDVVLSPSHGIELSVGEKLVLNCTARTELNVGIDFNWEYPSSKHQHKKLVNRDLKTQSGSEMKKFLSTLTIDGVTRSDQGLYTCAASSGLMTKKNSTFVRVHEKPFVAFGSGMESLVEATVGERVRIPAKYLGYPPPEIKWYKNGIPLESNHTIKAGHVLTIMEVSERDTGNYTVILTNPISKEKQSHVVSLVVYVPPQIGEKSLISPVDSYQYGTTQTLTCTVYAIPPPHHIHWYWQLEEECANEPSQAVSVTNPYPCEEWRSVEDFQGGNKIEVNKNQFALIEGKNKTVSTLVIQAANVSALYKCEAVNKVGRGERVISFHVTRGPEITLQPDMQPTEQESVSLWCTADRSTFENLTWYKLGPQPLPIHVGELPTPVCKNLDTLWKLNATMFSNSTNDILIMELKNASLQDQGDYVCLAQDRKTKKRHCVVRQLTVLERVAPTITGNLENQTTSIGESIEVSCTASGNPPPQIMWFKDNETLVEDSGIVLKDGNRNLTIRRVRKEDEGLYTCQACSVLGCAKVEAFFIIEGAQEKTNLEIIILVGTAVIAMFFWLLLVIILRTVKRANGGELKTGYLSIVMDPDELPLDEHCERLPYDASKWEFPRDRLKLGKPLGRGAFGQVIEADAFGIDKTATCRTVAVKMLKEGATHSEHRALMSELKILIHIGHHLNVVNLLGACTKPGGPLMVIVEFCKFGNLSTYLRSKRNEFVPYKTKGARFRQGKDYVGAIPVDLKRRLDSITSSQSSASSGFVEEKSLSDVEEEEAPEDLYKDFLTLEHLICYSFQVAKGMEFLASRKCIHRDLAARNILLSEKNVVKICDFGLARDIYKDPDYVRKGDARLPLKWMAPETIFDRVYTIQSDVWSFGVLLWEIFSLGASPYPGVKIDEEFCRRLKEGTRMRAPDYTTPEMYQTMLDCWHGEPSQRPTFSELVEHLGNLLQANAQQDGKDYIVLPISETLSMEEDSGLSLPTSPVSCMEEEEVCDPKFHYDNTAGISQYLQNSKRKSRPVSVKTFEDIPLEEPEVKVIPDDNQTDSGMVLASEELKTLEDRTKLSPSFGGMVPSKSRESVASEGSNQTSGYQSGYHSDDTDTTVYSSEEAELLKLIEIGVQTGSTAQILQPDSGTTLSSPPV
Description for KARPAS-299: Antitumor activity against human KARPAS299 cells xenografted in SCID mouse assessed as tumor growth inhibition at 30 to 60 mg/kg, po bid administered for 10 days
Description for NCI-H2228: Antitumor activity against human NCI-H2228 cells xenografted in athymic nu/nu mouse assessed as tumor growth inhibition at 30 to 60 mg/kg, po bid administered for 10 days

As for `CN1CCN(c2ccc(C(=O)Nc3n[nH]c4ccc(Cc5cc(F)cc(F)c5)cc34)c(NC3CCOCC3)c2)CC1` [ENTRECTINIB], the Activity result in the series on Mus musculus is on record as “Non-toxic”. Further, the IC50 is above 10 µM in series [1]; above 10 µM in series [3]; above 10 µM in [13]; 0.041 µM in series [14]; above 10 µM in series [17]; above 1 µM in series [19]. The AUC(0-inf) in series [2] is 15.1 µM·h; in [8] it was 17.4 µM·h; in series [20], 19.6 µM·h. The half-life in series [4] is 3.59 h; in series [10] it was 15.2 h; in [16], 2.94 h. The Cmax in [5] came out at 11000 nM; in series [7] it was 8600 nM; in [9], 600 nM; in [15] it was 500 nM. The CLint scaled in [6] is 87 mL/min/kg. Besides, the Tmax in [11] came out at 2 h. In series [12], the Papp B→A at 2 h, 2.5 mg/ml turned out to be 3 ×10⁻⁶ cm/s. Besides, the TGI result in the series on KARPAS-299 and in the series on NCI-H2228 was “Active” in each case. Moreover, the concentration at 6 h in series [18] came out at 1940 nM.
